Measurements as given in the supplement of paper PMC11451515.

Tested on: SEM cells
Test: cell viability relative to DMSO control; higher = less cytotoxic
Details: 48 h
Outline: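 Three leukemia lines were tested: NOMO1 and SEM at 500 cells/well and P12-Ichikawa at 1000 cells/well. Each was adapted for at least four passages in each medium and seeded in 5 μl in 1536-well plates, and library compounds in DMSO were pin-dosed from 47 μM to 0.79 nM in 11 threefold steps. After 48 h at 37°C, CellTiter-Glo One luminescence was read. Viability is a percentage relative to DMSO wells on each plate, with cell-free wells as background.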

[1] = HPLM + 10% dialyzed FBS, 0.000781 µM
[2] = HPLM + 10% dialyzed FBS, 0.00234 µM
[3] = HPLM + 10% dialyzed FBS, 0.00702 µM
[4] = HPLM + 10% dialyzed FBS, 0.0211 µM
[5] = HPLM + 10% dialyzed FBS, 0.0632 µM
[6] = HPLM + 10% dialyzed FBS, 0.19 µM
[7] = HPLM + 10% dialyzed FBS, 0.569 µM
[8] = HPLM + 10% dialyzed FBS, 1.71 µM
[9] = HPLM + 10% dialyzed FBS, 5.12 µM
[10] = HPLM + 10% dialyzed FBS, 15.4 µM
[11] = HPLM + 10% dialyzed FBS, 46.1 µM
[12] = RPMI 5 mM glucose + 10% FBS, 0.000781 µM
[13] = RPMI 5 mM glucose + 10% FBS, 0.00234 µM
[14] = RPMI 5 mM glucose + 10% FBS, 0.00702 µM
[15] = RPMI 5 mM glucose + 10% FBS, 0.0211 µM
[16] = RPMI 5 mM glucose + 10% FBS, 0.0632 µM
[17] = RPMI 5 mM glucose + 10% FBS, 0.19 µM
[18] = RPMI 5 mM glucose + 10% FBS, 0.569 µM
[19] = RPMI 5 mM glucose + 10% FBS, 1.71 µM
[20] = RPMI 5 mM glucose + 10% FBS, 5.12 µM
[21] = RPMI 5 mM glucose + 10% FBS, 15.4 µM
[22] = RPMI 5 mM glucose + 10% FBS, 46.1 µM
[23] = RPMI 5 mM glucose + 10% dialyzed FBS, 0.000781 µM
[24] = RPMI 5 mM glucose + 10% dialyzed FBS, 0.00234 µM
[25] = RPMI 5 mM glucose + 10% dialyzed FBS, 0.00702 µM
[26] = RPMI 5 mM glucose + 10% dialyzed FBS, 0.0211 µM
[27] = RPMI 5 mM glucose + 10% dialyzed FBS, 0.0632 µM
[28] = RPMI 5 mM glucose + 10% dialyzed FBS, 0.19 µM
[29] = RPMI 5 mM glucose + 10% dialyzed FBS, 0.569 µM
[30] = RPMI 5 mM glucose + 10% dialyzed FBS, 1.71 µM
[31] = RPMI 5 mM glucose + 10% dialyzed FBS, 5.12 µM
[32] = RPMI 5 mM glucose + 10% dialyzed FBS, 15.4 µM
[33] = RPMI 5 mM glucose + 10% dialyzed FBS, 46.1 µM

Structure (SMILES)	cell viability [1] [%]	cell viability [2] [%]	cell viability [3] [%]	cell viability [4] [%]	cell viability [5] [%]	cell viability [6] [%]	cell viability [7] [%]	cell viability [8] [%]	cell viability [9] [%]	cell viability [10] [%]	cell viability [11] [%]	cell viability [12] [%]	cell viability [13] [%]	cell viability [14] [%]	cell viability [15] [%]	cell viability [16] [%]	cell viability [17] [%]	cell viability [18] [%]	cell viability [19] [%]	cell viability [20] [%]	cell viability [21] [%]	cell viability [22] [%]	cell viability [23] [%]	cell viability [24] [%]	cell viability [25] [%]	cell viability [26] [%]	cell viability [27] [%]	cell viability [28] [%]	cell viability [29] [%]	cell viability [30] [%]	cell viability [31] [%]	cell viability [32] [%]	cell viability [33] [%]
CC(C)[C@H]1C(=O)N[C@H](CO)Cc2c[nH]c3cccc(c23)N1C	82.3	78.3	90.7	105	114	75.6	85.6	78.9	57.9	64.7	76.6	83	74	91.9	114	99.1	78.3	92.3	74.2	47.9	50.2	61.3	89.7	90.8	99.7	114	102	80.6	104	104	67.1	74.1	88.4
OC[C@H]1OC(O)C[C@@H](O)[C@@H]1O (some centres not stated)	83.6	32.6	104	99.5	92.4	96	92.8	101	101	97.8	97.9	95.6	26.8	118	116	114	115	118	125	109	136	127	97.6	37.5	116	104	118	113	120	120	109	116	119
CC[C@H](C)C(=O)O[C@H]1C[C@@H](C)\C=C2\C=C/[C@H](C)[C@H](CC[C@@H]3C[C@@H](O)CC(=O)O3)[C@@H]12	71.1	85.1	100	87.9	90.3	93.8	56.6	86	82.6	59.8	65.7	51.9	91.1	92.5	89.8	93.2	95	84.8	81.9	81.2	63.2	64.5	80.9	84.6	106	92.6	97	108	30	99.8	98	71.6	61.1
COCC(=O)NC/C=C/c1ccc2ncnc(Nc3ccc(Oc4ccc(C)nc4)c(C)c3)c2c1	87.2	87.7	87.1	96.4	92.4	92.3	108	90.3	82.2	89.1	66.5	102	105	124	95.2	105	98.8	103	97.8	93	99.9	34.6	78.8	82.9	93.6	95.6	101	86.8	94.2	91	71.6	88	49
Cc1cccc(-c2[nH]c(C(C)(C)C)nc2-c2ccc3nccnc3c2)n1	121	121	120	131	123	125	124	121	117	97.7	11.1	95.9	85.8	89.7	95.9	91.2	81.1	89	67.9	82	64.9	6.89											
CC(C)(C)NCC(O)c1ccc(O)c(CO)c1 (configuration not stated)	101	99.4	103	106	113	102	112	106	104	109	93.6	118	113	115	112	108	125	109	95.5	107	108	111	96.9	112	109	124	115	114	111	116	120	122	114
CN(C)CCc1c[nH]c2ccc(Cn3cncn3)cc12	76.1	88.7	97.4	96.4	98	48.5	55	23	9.54	8.01	7.53	86	91	86.9	84.9	75.8	30.7	36.3	10.4	7.9	7.16	6.13	91.4	96.1	88.9	97.5	79.3	43.4	50.7	18.2	9.37	8.33	6.69
COC(=O)[C@H](Cc1ccccc1)NC(=O)[C@@H](N)CC(=O)O	128	106	111	103	130	110	126	119	103	120	116	125	98.5	121	112	122	118	128	119	100	123	116	124	106	104	107	123	122	111	116	98.3	110	104
CC(C)C[C@H](CC(=O)O)C(=O)N[C@@H](Cc1c[nH]c2ccccc12)C(=O)N[C@@H](C)c1ccccc1	96.1	100	119	113	106	105	7.87	92.1	112	73.1	54	96.1	112	125	116	110	122	8.87	86.2	96.9	65.9	54.3	77.7	90.4	97.3	113	89.6	87.2	8.39	79.4	90.2	53.7	46.4
Cc1nnc(C(=O)NC(C)(C)c2nc(C(=O)NCc3ccc(F)cc3)c(O)c(=O)n2C)o1	107	111	116	102	101	123	113	108	104	108	107	96.7	101	99.2	120	125	93.8	107	80.8	90.9	97	111	105	106	109	122	109	117	107	109	93.9	98.9	110
O=c1oc2cc(O)ccc2s1	85.6	110	98.9	95.4	109	105	120	93.9	111	105	37.9	91.8	106	82.9	110	103	98.6	112	118	109	77.6	24.8	97.4	119	99.3	109	121	88.3	112	106	129	90.3	37.6
CC[C@H](CO)Nc1nc(NCc2ccccc2)c2ncn(C(C)C)c2n1	89.9	96.2	95.3	86.9	93.7	96.8	83.7	99.8	94	98.1	58.7	114	97.4	128	111	112	126	126	99.9	108	120	63.6	102	102	88.6	88.2	90.8	95.6	98	97	102	88.1	35.3
C=C1CCC2[C@](C)(CO)C(O)CC[C@]2(C)C1C/C=C1/C(=O)OCC1O (some centres not stated)	122	122	112	126	116	111	109	105	103	117	93.3	125	115	118	97.8	108	99.2	88.3	87.1	81.5	84.8	85.6	129	120	121	115	113	116	109	106	109	96.3	92.3
NC(=O)N1CCC(CC(=O)N2CCC([C@H]3c4ncc(Br)cc4CCc4cc(Cl)cc(Br)c43)CC2)CC1	106	99.3	114	124	111	118	72.5	57.1	48.6	45.7	34.8	114	122	120	129	111	122	82.4	66.3	46	44.4	24.1	98.1	109	110	101	97.2	114	95.9	84.4	56.1	58	17.8
CN(C)C(=O)[C@H](O)[C@H](Cc1ccccc1)NC(=O)c1cc2cc(Cl)ccc2[nH]1	98.5	109	107	118	122	119	109	86.1	14	11.2	7.62	95.8	80.9	81.7	86.3	108	94.6	104	81.2	14	8.95	6.87	85.2	108	105	100	111	105	105	77.9	18.8	8.36	6.18
O=C1\C=C(OC2=C(C=CC=C12)C3=CC=CC4=C3SC5=C4C=CC=C5)\N6CCOCC6	110	103	121	120	124	115	107	104	96.9	89.9	91.2	133	104	105	138	109	112	112	114	73	60.2	62.7	129	109	116	123	116	123	122	113	78.5	75.7	76
